How the values were obtained:
Assay type in all cases: in vivo
Aedes aegypti = assay: one-choice mosquito landing rate inhibition assay
Procedure: The clonal population serving as source material for the essential oil was the ‘CR3’ cultivar. The hydro-distilled essential oil from this population was used as the source for the crude essential oil treatment and was partitioned for subsequent fractionation and nepetalactone purification. The clones were transplanted to the field. Immediately before the plants were in full flower, they were harvested and dried at 37° C. with an onsite Powell walk-in forced air heat dryer kept under low heat conditions. Once the plants had lost all moisture, under the temperature and pressure conditions, the leaves and flowers were separated from the stems for hydro-distillation. Essential oils were extracted by hydro-distilling 60 g of dried N. cataria leaves and flowers. They were distilled in a 2 L round bottom flask for 3 hours in 1 L of water and the essential oil was collected in a Clevenger-type trap. The essential oils were then prepared and analyzed by GC/MS. The CR3 essential oil contained about 29% Z, E-nepetalactone and about 59% E, Z-nepetalactone (% of the total essential oil). […]
(§1) Repellency was determined by a one-choice landing assay that uses the amount of mosquito landings to calculate the overall effectiveness of the candidate repellent. […] Time lapse photography recorded one image every five seconds. […]

Anopholes gambiae = assay: one-choice mosquito landing rate inhibition assay
Procedure: The clonal population serving as source material for the essential oil was the ‘CR3’ cultivar. The hydro-distilled essential oil from this population was used as the source for the crude essential oil treatment and was partitioned for subsequent fractionation and nepetalactone purification. The clones were transplanted to the field. Immediately before the plants were in full flower, they were harvested and dried at 37° C. with an onsite Powell walk-in forced air heat dryer kept under low heat conditions. Once the plants had lost all moisture, under the temperature and pressure conditions, the leaves and flowers were separated from the stems for hydro-distillation. Essential oils were extracted by hydro-distilling 60 g of dried N. cataria leaves and flowers. They were distilled in a 2 L round bottom flask for 3 hours in 1 L of water and the essential oil was collected in a Clevenger-type trap. The essential oils were then prepared and analyzed by GC/MS. The CR3 essential oil contained about 29% Z, E-nepetalactone and about 59% E, Z-nepetalactone (% of the total essential oil).
as §1

Dermacentor variabilis = assay: one-choice tick filter paper repellency assay (petri dish arena); conditions: D. variabilis, 15 minutes, three replicates
Procedure: (§2) An arena was constructed out of petri dishes to establish a dose response curve of a repellent ('CR3′ essential oil or DEET) filter paper by monitoring the total amount of tick positions over 15 minutes (1 image every 15 sec) and calculating percent repellency. ‘CR3’ oils were extracted with acetone as described in Example 3. In a one-choice assay, the repellent was applied to half of the filter paper and placed into the petri dish where the ticks are placed, the petri dish cover applied, and the number of ticks counted applied to the repellent zone. In the two-choice repellency test (see FIG. 6), DEET and a repellent (‘CR3’ essential oil) were applied to different sides of the filter paper and the ticks are counted in reference to the test repellent, not DEET. Total Tick positions=(# ticks in petri dish)×(60 images) Percent repellency=[(# of ticks in the repellent zone)/(Total Tick positions)]*100 Three replicates were performed for each treatment. Complete repellency was defined as repelling greater than 95% of the ticks.

Ixodes scapularis = assay: as above; conditions: I. scapularis, 15 minutes, three replicates
Procedure: as §2

[1] = 0.01% of the treatment applied to the filter paper

`CCN(CC)C(=O)c1cccc(C)c1` [DEET] was tested, and the “reduction of A. aegypti landing” value (Aedes aegypti; [1]) was “about 32%”, the “decrease of mosquito landings (repellency)” value (Aedes aegypti; A. aegypti, treatment at 1% on filter paper) was over 95% and the “reduction of A. gambiae landing” value (Anopholes gambiae; [1]) was “about 35%”. The “decrease of mosquito landings (repellency)” value (Anopholes gambiae; A. gambiae, treatment at 1% on filter paper) was over 95%, the percent repellency (Dermacentor variabilis; applied at 0.1%) was 86.06±10.2 and the percent repellency (Dermacentor variabilis; applied at 1%) was 99.31±1.00. The percent repellency (Ixodes scapularis; applied at 0.1%) was 59.16±8.94 and the percent repellency (Ixodes scapularis; applied at 1%) was 99.79±0.36.

Source: patent publication US10952390B2, “Catnip cultivar ‘CR3’” (Rutgers, The State University of New Jersey, priority 2016, dated 2021)
